# Read-outs that look alike come from different tables or passages of the source.
# Columns and labels:
# Type in all cases: cell-based
# [1] = tested on: bacterial strains that expressed the beta-lactamase, NDM-1 and CMY-6; assay: Aztreonam/Tigemonam MIC at various concentrations of BLI (summary)
# Protocol: (§1) MIC values for each bacterial strain were measured for each antimicrobial compound at various concentrations of each BLI.
# [2] = tested on: E. coli EC1061 (NDM-1 CMY-6); assay: Aztreonam/Tigemonam MIC at various concentrations of BLI; conditions: for MIC: Escherichia coli, E. coli EC1061, read-out: Tigemonam MIC
# Protocol: MIC values for each bacterial strain were measured for each antimicrobial compound at various concentrations of each BLI. […]
# [3] = tested on: K. pneumoniae KP1081 (NDM-1, CMY-6, SHV-11, CTX-M-15, TEM-1); assay: as above; conditions: KP1081
# Protocol: as §1
# [4] = tested on: E. coli EC1061 (NDM-1 CMY-6); assay: as above; conditions: Compound 68 0 μg/ml
Tigemonam MIC (μg/ml) in the presence of BLI ([3]; Compound 5 0 μg/ml),Tigemonam MIC (μg/ml) in the presence of BLI ([3]; Compound 68 0 μg/ml),"Tigemonam MIC (μg/ml) in the presence of BLI ([2]; EC1061, Compound 5 0 μg/ml)",MIC ([2]; tigemonam alone),Tigemonam MIC (μg/ml) in the presence of BLI [4],Compound,effect on Aztreonam or Tigemonam MICs [1],MIC ([2]; with 0.31 μg/ml Compound A)
–,–,–,–,–,"O=C(O)C[C@H]1C=CC[C@H](NC(=O)Cc2cccs2)B(O)O1 [Compound 68, 2-((3R,7S)-2-hydroxy-3-(2-(thiophen-2-yl)acetamido)-2,3,4,7-tetrahydro-1,2-oxaborepin-7-yl)acetic acid]",decreased the Aztreonam or Tigemonan MICs,0.5 µg/mL
16 µg/mL,16 µg/mL,8 µg/mL,8 µg/mL,16 µg/mL,"CC1(C)[C@H](NC(=O)/C(=N\OCC(=O)O)c2csc(N)n2)C(=O)N1OS(=O)(=O)O [Tigemonam, reference compound]",–,–

# — patent US20150119363A1, “METHODS OF TREATING BACTERIAL INFECTIONS” (Rampex Pharmaceuticals, Inc., priority 2012, published 2015)
